According to ChEMBL document CHEMBL1131688, “Solution-phase and solid-phase synthesis of novel transition state inhibitors of coagulation enzymes incorporating a piperidinyl moiety” (Bioorg Med Chem Lett, 1999):

Experiments:
Prothrombin = Prothrombin (Homo sapiens, UniProt P00734); assay: Inhibitory activity against thrombin with respect to Argatroban
Coagulation factor X [1] = target: T1, Coagulation factor X (Homo sapiens, UniProt P00742); assay: Inhibitory activity against Coagulation factor X with respect to Argatroban
Coagulation factor X [2] = target: T1, Coagulation factor X; assay: Inhibitory activity against Coagulation factor X

T1 sequence (P00742 41-179 limits assumed): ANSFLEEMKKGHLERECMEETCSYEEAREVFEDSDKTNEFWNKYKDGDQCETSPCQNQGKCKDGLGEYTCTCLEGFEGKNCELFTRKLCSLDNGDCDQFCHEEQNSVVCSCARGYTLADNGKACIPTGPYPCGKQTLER
T1 sequence (P00742 235-488 limits assumed): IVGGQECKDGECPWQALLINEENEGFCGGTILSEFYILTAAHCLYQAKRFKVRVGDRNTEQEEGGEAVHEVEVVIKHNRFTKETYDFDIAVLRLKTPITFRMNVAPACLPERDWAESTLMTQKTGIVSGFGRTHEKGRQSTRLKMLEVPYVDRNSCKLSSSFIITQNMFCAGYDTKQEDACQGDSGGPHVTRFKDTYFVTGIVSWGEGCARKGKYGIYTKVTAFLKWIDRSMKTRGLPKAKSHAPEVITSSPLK

SMILES	IC50 (Prothrombin) [µM]	IC50 (Coagulation factor X [1]) [µM]	IC50 (Coagulation factor X [2]) [µM]
O=C(NCc1ccccc1)C(=O)[C@H](CC1CCNCC1)NC(=O)[C@H]1CCCN1C(=O)CC(c1ccccc1)c1ccccc1	0.26	54	
CC1CNc2c(cccc2S(=O)(=O)N[C@@H](CCCNC(=N)N)C(=O)N2CCC(C)C[C@@H]2C(=O)O)C1 (single isomer, unassigned) [ARGATROBAN]			134
O=C(Cn1cccc(NS(=O)(=O)Cc2ccccc2)c1=O)N[C@@H](CC1CCNCC1)C(=O)C(=O)NCc1ccccc1	0.59	3.6	
O=C(O)CN[C@H](CC1CCCCC1)C(=O)N[C@@H](Cc1ccccc1)C(=O)NC(CC1CCNCC1)C(=O)c1nccs1 (stereo partly specified)	3.1	7.8	
CCS(=O)(=O)N[C@H](CC1CCCCC1)C(=O)N1CCC[C@H]1C(=O)NC(CC1CCNCC1)C(=O)C(=O)O (stereo partly specified)	0.22	16	
O=C(NCc1ccccc1)C(=O)[C@H](CC1CCNCC1)NC(=O)[C@H]1CCCN1C(=O)[C@@H]1NCC[C@H]2CCCC[C@H]21	0.048	2.9	
CCS(=O)(=O)N[C@H](CC1CCCCC1)C(=O)N1CCC[C@H]1C(=O)NC(CC1CCNCC1)C(=O)c1nccs1 (stereo partly specified)	0.16	4.1	
CCS(=O)(=O)N[C@H](CC1CCCCC1)C(=O)N1CCC[C@H]1C(=O)N[C@@H](CC1CCNCC1)C(=O)c1nccs1	0.12	2.5	
CN(CC(=O)NC(CC1CCNCC1)C(=O)c1nccs1)C(=O)[C@@H](CC1CCCCC1)NCC(=O)O (stereo partly specified)	4.8	0.43	
O=C(O)CN[C@H](CC1CCCCC1)C(=O)NCC(=O)NC(CC1CCNCC1)C(=O)c1nccs1 (stereo partly specified)	19.4	1.1	
O=C(CN1CCCCC(NS(=O)(=O)Cc2ccccc2)C1=O)N[C@@H](CC1CCNCC1)C(=O)C(=O)NCc1ccccc1 (stereo partly specified)	1.4	5.2	
